Measurements published in patent US20230103965A1, “NOVEL ACTIVATORS OF THE LIPIDATING TRANSPORTER ATP BINDING CASSETTE PROTEIN TYPE 1 (AB-CA1) AND THERAPEUTIC USES THEREOF” (RAMOT AT TEL-AVIV UNIVERSITY LTD., priority 2020, published 2023).

How the values were obtained:
Human Astrocytes = assay: Cholesterol efflux (apoE4 lipidation) assay, BODIPY-cholesterol translocation to apoE4; format: cell-based; details: for EC50: Astrocyte, Human astrocytes, efflux to apoE4
Description: Cholesterol efflux assay in HTS. CCF-STTG1 cells were plated in 384-well plates containing 50 μL/well RPMI supplemented with 10% FBS at a density of 5×10^3 cells/well, using a Multidrop 384 Reagent Dispenser (Thermo Scientific), and incubated for 48 hr. Cells were washed twice with 50 μl PBS using an EL406 Microplate Washer Dispenser (BioTek, Winooski, Vt., USA) before being labeled with 50 μl of 10 μM BODIPY-cholesterol+100 μM cyclodextrin (CD) in RPMI 1640 medium containing 0.2% BSA. The labeling medium was added using in a Washer Dispenser II (GNF, San Diego, Calif., USA). Plates were transferred automatically to a Liconic incubator (Mauren Principality of Liechtenstein) and incubated for 24 h. Subsequently, cells were washed twice as described above to remove external cholesterol. Next, 50 μl of the efflux medium was added, which contained recombinant apoE4 at a concentration of 40 μg/ml in transparent RPMI 1640 (no phenol red), again using Washer Dispenser II (GNF, San Diego, Calif., USA). The positive control contained the ABCA1 activator, CS-6253 (120 μg/ml) in addition to the acceptor (apoE4). After 7 hr of efflux, the medium was transferred to new plates, using the Bravo Automated Liquid Handling system (Agilent, Santa Clara, Calif., USA). Fluorescence polarization (FP) and fluorescence intensity (FI) of the medium were measured in a PheraStar FS plate reader (BMG Labtech, Ortenberg, Germany).
The apoE4 lipidation Assay is based on measurements of the ability of astrocytes to translocate fluorescently labelled cholesterol to recombinant non lipidated apoE4 and on the extent to which this effect is enhanced by treatment with each of the screened compounds (FIG. 2, 3). This assay is an adaptation of previous studies of cholesterol translocation from labelled astrocytes to external acceptors such as apoE4 [16], except that in order to differentiate between gene expression related effects and direct biochemical effects of the hits on ABCA1, the incubations of the HTS with the cells was limited to 8 hours. The extent to which the cells secret the labelled cholesterol and transfer it to non-lipidated apoE4 was determined by regular fluorescence as well as by fluorescence polarization microscopy. The latter technique in this context is used due to its sensitivity to particle size which decreases the background signal by differentiating between free and particle bound released cholesterol.
The assay was characterized biochemically and it was shown that translocation of labelled cholesterol to apoE4 is time and concentration dependent (FIG. 4) and was increased by the positive control ABCA1 agonistic 26mer peptide CS-6253 [4] (FIG. 5). The assay was used for high throughput screening (HTS) and selection of positive hits. 50,000 compounds from commercially available libraries were screened utilizing the double criteria of a signal greater than 3 standard deviations from the mean of all of the screened compounds, and being similar or greater than the apoE4 lipidation driven by the ABCA1 agonistic peptide CS-6253. Additional criteria included the tier drug ability value with tier 1 being best and tier 3 being least suitable, as well as a hydrophobicity value of 2<log P<5 value. This yielded 14 hits, designated Compounds #1-#14 (FIG. 6).

ABCA1 = target: T1, ABCA1 (Homo sapiens, UniProt O95477); assay: Target recognition: binding to ABCA1 (summary of labelled and label free MST)
T1 construct: The proteins used in these experiments were Extra-Cellular Domain 1 (ECD1) of ABCA1 and Extra-Cellular Domain 2 (ECD2); purchased Biomatick
T1 sequence (O95477 43-639 limits assumed): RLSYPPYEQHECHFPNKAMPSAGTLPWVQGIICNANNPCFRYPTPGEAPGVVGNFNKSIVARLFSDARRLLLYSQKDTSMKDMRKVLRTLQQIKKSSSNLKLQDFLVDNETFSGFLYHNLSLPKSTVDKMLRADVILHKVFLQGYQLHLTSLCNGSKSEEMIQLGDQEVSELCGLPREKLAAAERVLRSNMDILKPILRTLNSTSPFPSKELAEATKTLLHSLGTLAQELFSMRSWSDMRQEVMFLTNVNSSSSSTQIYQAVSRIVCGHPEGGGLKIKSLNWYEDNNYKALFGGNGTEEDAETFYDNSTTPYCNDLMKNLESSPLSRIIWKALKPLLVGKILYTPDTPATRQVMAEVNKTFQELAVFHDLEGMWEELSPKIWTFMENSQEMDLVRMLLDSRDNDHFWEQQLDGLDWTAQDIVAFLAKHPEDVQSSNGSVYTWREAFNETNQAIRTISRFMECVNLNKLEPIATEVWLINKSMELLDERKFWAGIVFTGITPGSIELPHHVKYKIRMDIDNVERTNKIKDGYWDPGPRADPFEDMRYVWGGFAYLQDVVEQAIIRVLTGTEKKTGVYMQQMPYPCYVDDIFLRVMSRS
Description: Microscale thermophoresis (MST) measurements. MST measurements of the binding of the HTS hits to the extracellular domain (ECD) of ABCA1 were performed by two complimentary methods utilizing either fluorescently labeled proteins or the endogenous fluorescence of unlabeled proteins. This was pursued as follows:
The experiments were performed with the purified extracellual domains 1 (ECD1) and 2 (ECD2) of ABCA1 [18]. Two complementary MST tests were performed, in which either the proteins were labeled with a fluorescence moiety or the endogenous fluorescence of the unlabeled proteins was monitored).
A. HTS Screening and Target Recognition • 1.

SMILES	EC50 (Human Astrocytes; Table 2) [µM]	EC50 (Human Astrocytes; Table 4) [µM]	MST binding to ECD1 (ABCA1)	Stimulation of cholesterol efflux from human astrocytes to apoE4 (Human Astrocytes; test compounds 50 μM)
Cc1nn(CC(=O)c2ccc(Br)s2)c(C)c1[N+](=O)[O-] [Hit #3]	> 44.8	> 44.8	bind saturably to ECD1	
O=[N+]([O-])c1ccc(N2CCCCC2)c2nonc12 [Hit #7]	8.56	8.56	scored positively	activates cholesterol efflux

Continued, in another order:

EC50 (Human Astrocytes; Table 2) [µM]	EC50 (Human Astrocytes; Table 4) [µM]	MST binding to ECD1 (ABCA1)	SMILES	Stimulation of cholesterol efflux from human astrocytes to apoE4 (Human Astrocytes; test compounds 50 μM)
> 44.8	> 44.8		C[C@]12CC[C@@H](O)CC1CCC1C2CC[C@](C)(C(=O)O)C1/C=C1/Nc2ccccc2C1=O (some centres unmarked) [Hit #12]	
28.3	28.3	bind saturably to ECD1	CC(C)(C)C(=O)COC(=O)c1ccccc1SCc1cc(-c2ccco2)on1 [Hit #4]	
> 44.8	> 44.8		CSC(SC)=C1CC/C(=C/c2ccc(N(C)C)cc2)C1=O [Hit #14]	
